Data published in paper PMC7201284, “A complete compendium of crystal structures for the human SEPT3 subgroup reveals functional plasticity at a specific septin interface” (IUCrJ, 2020).

Columns and labels:
Assay in all cases: X-ray crystallography, co-crystallization
SEPT9GC = molecular target: T1, SEPT9GC (Homo sapiens, UniProt Q9UHD8); conditions: about 2.0 Å; Mg2+; nucleotide-binding site at G interface
T1 construct: gene SEPTIN9; G domain plus C-terminal region, residues 279-568, pET-28a(+) His-tag, E. coli Rosetta (DE3); monomer about 38 kDa; purified nucleotide-free
T1 sequence (Q9UHD8 279-568): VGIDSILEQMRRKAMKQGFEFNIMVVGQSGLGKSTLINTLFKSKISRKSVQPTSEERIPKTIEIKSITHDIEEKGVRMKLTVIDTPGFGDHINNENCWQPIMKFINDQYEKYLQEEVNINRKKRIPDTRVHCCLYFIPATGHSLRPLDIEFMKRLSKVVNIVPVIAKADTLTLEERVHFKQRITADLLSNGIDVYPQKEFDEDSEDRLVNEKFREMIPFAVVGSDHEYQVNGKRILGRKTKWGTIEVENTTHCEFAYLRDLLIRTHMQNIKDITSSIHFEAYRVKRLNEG

SEPT12G = molecular target: T2, SEPT12G (Homo sapiens, UniProt Q8IYM1); conditions: Mg2+, nucleotide-binding site
T2 construct: gene SEPTIN12; G domain, residues 47-320, pET-28a(+) His-tag, E. coli Rosetta (DE3); monomer about 32 kDa
T2 sequence (Q8IYM1 47-320): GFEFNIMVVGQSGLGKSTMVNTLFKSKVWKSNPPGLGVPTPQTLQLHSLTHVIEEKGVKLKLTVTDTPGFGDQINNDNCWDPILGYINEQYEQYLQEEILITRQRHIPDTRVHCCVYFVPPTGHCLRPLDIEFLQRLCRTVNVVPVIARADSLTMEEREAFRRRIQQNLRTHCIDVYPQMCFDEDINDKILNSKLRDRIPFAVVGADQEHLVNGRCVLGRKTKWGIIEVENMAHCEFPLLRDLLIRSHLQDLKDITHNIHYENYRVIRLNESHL

SEPT3α0G = molecular target: T3, SEPT3α0G (Homo sapiens, UniProt Q9UH03); conditions: 1.83 Å; Mg2+ in active site; nucleotide-binding site at G interface
T3 construct: gene SEPTIN3; G domain plus polybasic helix α0, residues 43-330; expressed and purified as in Macedo et al. 2013; monomer in solution; homotypic G-interface dimers in crystal
T3 sequence (Q9UH03 43-330): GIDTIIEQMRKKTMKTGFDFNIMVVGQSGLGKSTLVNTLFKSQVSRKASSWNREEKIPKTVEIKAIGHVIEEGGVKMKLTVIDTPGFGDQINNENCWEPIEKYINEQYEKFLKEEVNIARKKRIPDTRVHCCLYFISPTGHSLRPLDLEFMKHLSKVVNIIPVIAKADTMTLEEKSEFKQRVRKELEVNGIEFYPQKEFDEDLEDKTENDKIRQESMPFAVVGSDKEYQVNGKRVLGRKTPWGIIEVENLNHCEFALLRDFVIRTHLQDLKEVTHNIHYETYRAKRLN

SEPT3G = molecular target: T4, SEPT3G (Homo sapiens, UniProt Q9UH03); conditions: 1.86 Å; Mg2+; nucleotide-binding site; b26 labels 4z51 as GTPγS but methods, Table 2 and results say GMPPNP
T4 construct: gene SEPTIN3; G domain without helix α0, residues 59-330; expressed and purified as in Macedo et al. 2013; monomer in solution; homotypic G-interface dimers in crystal
T4 sequence (Q9UH03 59-330): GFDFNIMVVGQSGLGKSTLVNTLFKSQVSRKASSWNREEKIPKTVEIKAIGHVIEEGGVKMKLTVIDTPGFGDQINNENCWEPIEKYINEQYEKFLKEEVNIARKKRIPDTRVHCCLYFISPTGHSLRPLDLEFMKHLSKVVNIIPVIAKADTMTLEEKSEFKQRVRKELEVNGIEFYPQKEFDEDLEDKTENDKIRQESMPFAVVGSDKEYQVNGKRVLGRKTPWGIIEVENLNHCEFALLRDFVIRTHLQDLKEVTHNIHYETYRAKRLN

Nc1nc2c(ncn2[C@@H]2O[C@H](COP(=O)(O)OP(=O)(O)O)[C@@H](O)[C@H]2O)c(=O)[nH]1 [GDP]
X-ray crystallography, co-crystallization (SEPT9GC): The structure of SEPT9GC–GDP (PDB entry 5cyo) has a G-interface dimer in the asymmetric unit | X-ray crystallography, co-crystallization (SEPT12G; 2.19 Å, small quantity of GDP also co-purified): In SEPT12G–GDP (PDB entry 6mqk) the metal ion is canonically coordinated by Thr89, Ser63 | X-ray crystallography, co-crystallization (SEPT3α0G): structures of the G domain of SEPT3 complexed with either GDP or the GTP mimetic GMPPNP

Nc1nc2c(ncn2[C@@H]2O[C@H](COP(=O)(O)OP(=O)(O)NP(=O)(O)O)[C@@H](O)[C@H]2O)c(=O)[nH]1 [GMPPNP]
X-ray crystallography, co-crystallization (SEPT3G): The SEPT3G–GMPPNP complex (PDB entry 4z51) has only one monomer per asymmetric unit | X-ray crystallography, co-crystallization (SEPT12G; 1.86 Å (P1, 6mq9) and 2.12 Å (C2221, 6mqb)): Two structures were obtained in the presence of GMPPNP
